In patent US20250282799A1, “SUBSTITUTED PYRIDO[4,3-d]PYRIMIDINES AS KRAS MODULATORS” (Alterome Therapeutics, Inc., priority 2023, published 2025):

tested on: KRAS G12V dependent lung adenocarcinoma cell line, NCI-H441; assay: Cellular pERK (Thr202/Tyr204) FRET/HTRF assay; assay type: cell-based; details: Homo sapiens, NCI-H441, cellular pERK (Thr202/Tyr204) HTRF, NCI-H441 cells
Procedure, shortened: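 NCI-H441 cells (KRAS G12V) plated overnight at 37 °C, then exposed to compounds for 1 hr at 37 °C, 5% CO2; DMSO as negative control. Lysates read by Eu-cryptate/d2 sandwich FRET (665 nm) for ERK1/2 phosphorylated at Thr202/Tyr204; IC50 from curve fit.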

Row | IC50 [nM] | SMILES
1 | < 50 | [2H]C([2H])([2H])Oc1c(F)cc(F)c2cc(N)cc(-c3ncc4c(N5CCC=C[C@H]6[C@H](F)[C@H]65)nc(OC([2H])([2H])[C@@]56CCCN5C[C@H](F)C6)nc4c3F)c12 [Example 149, 6,8-difluoro-4-(8-fluoro-4-((1S,7R,8S)-8-fluoro-2-azabicyclo[5.1.0]oct-5-en-2-yl)-2-(((2R,7aS)-2-fluorotetrahydro-1H-pyrrolizin-7a(5H)-yl)methoxy-d2)pyrido[4,3-d]pyrimidin-7-yl)-5-(methoxy-d3)naphthalen-2-amine]
2 | 50 to 500 | [2H]C([2H])(F)Oc1c(F)ccc2cccc(-c3ncc4c(N5CCCC[C@H]6[C@H](F)[C@H]65)nc(OC[C@]56CC(=C(F)F)CN5CCC65CC5)nc4c3F)c12 [Example 413, (R)-6′-(difluoromethylene)-7a′-(((8-fluoro-7-(7-fluoro-8-(fluoromethoxy-d2)naphthalen-1-yl)-4-((1S,7R,8S)-8-fluoro-2-azabicyclo[5.1.0]octan-2-yl)pyrido[4,3-d]pyrimidin-2-yl)oxy)methyl)hexahydrospiro [cyclopropane-1,1′-pyrrolizine]]
3 | < 50 | Nc1cc(Cl)c(C(F)(F)F)c(-c2ncc3c(N4CCCC[C@H]5[C@H](F)[C@H]54)nc(OC[C@@]45CCCN4C/C(=C\F)C5)nc3c2F)c1 [Example 373, 3-chloro-5-(8-fluoro-4-((1S,7R,8S)-8-fluoro-2-azabicyclo[5.1.0]octan-2-yl)-2-(((S,Z)-2-(fluoromethylene)tetrahydro-1H-pyrrolizin-7a(5H)-yl)methoxy)pyrido[4,3-d]pyrimidin-7-yl)-4-(trifluoromethyl)aniline]
4 | 500 to 10000 | Cc1c(F)c(N)cc(-c2ncc3c(N4CCCC[C@@H]5[C@@H](F)[C@@H]54)nc(OC[C@@]45CCCN4CC(=C(F)F)C5)nc3c2F)c1C(F)(F)F [Example 395, 5-(2-(((S)-2-(difluoromethylene)tetrahydro-1H-pyrrolizin-7a(5H)-yl)methoxy)-8-fluoro-4-((1R,7S,8R)-8-fluoro-2-azabicyclo[5.1.0]octan-2-yl)pyrido[4,3-d]pyrimidin-7-yl)-2-fluoro-3-methyl-4-(trifluoromethyl)aniline]
5 | 500 to 10000 | [2H]C([2H])(Oc1nc(N2CCOC[C@H]3[C@H](F)[C@H]32)c2c(OC)nc(-c3cccc4ccc(F)c(C#C)c34)c(F)c2n1)[C@@]12CCCN1C[C@H](F)C2 [Example 235, (1S,7S,8S)-2-(7-(8-ethynyl-7-fluoronaphthalen-1-yl)-8-fluoro-2-(((2R,7aS)-2-fluorotetrahydro-1H-pyrrolizin-7a(5H)-yl)methoxy-d2)-5-methoxypyrido[4,3-d]pyrimidin-4-yl)-8-fluoro-5-oxa-2-azabicyclo[5.1.0]octane]
6 | 500 to 10000 | [2H]C([2H])(Oc1nc(N2CCOC[C@@H]3[C@@H](F)[C@@H]32)c2cc(F)c(-c3cc(N)c(F)c(C)c3C(F)(F)F)c(F)c2n1)[C@@]12CCCN1C[C@H](F)C2 [Example 178, 5-(6,8-difluoro-4-((1R,7R,8R)-8-fluoro-5-oxa-2-azabicyclo[5.1.0]octan-2-yl)-2-(((2R,7aS)-2-fluorotetrahydro-1H-pyrrolizin-7a(5H)-yl)methoxy-d2)quinazolin-7-yl)-2-fluoro-3-methyl-4-(trifluoromethyl)aniline]
7 | 500 to 10000 | Cc1c(F)c(N)cc(-c2ncc3c(N4CCCC[C@H]5[C@H](F)[C@H]54)nc(OC[C@@]45CCCN4CC(=C(F)F)C5)nc3c2F)c1C(F)(F)F [Example 394, 5-(2-(((S)-2-(difluoromethylene)tetrahydro-1H-pyrrolizin-7a(5H)-yl)methoxy)-8-fluoro-4-((1S,7R,8S)-8-fluoro-2-azabicyclo[5.1.0]octan-2-yl)pyrido[4,3-d]pyrimidin-7-yl)-2-fluoro-3-methyl-4-(trifluoromethyl)aniline]
8 | < 50 | C#Cc1c(F)ccc2cc(N)cc(-c3ncc4c(N5CCOC[C@H]6[C@H](F)[C@H]65)nc(OC[C@]56CC7(CC7)CN5CCC65CC5)nc4c3F)c12 [Example 206, 4-(2-(((R)-Dihydro-5′H-dispiro[cyclopropane-1,1′-pyrrolizine-6′,1″-cyclopropan]-7a′(7′H)-yl)methoxy)-8-fluoro-4-((1S,7S,8S)-8-fluoro-5-oxa-2-azabicyclo[5.1.0]octan-2-yl)pyrido[4,3-d]pyrimidin-7-yl)-5-ethynyl-6-fluoronaphthalen-2-amine]

same assay, conditions: Homo sapiens, NCI-H441, pERK HTRF, NCI-H441 cells (KRAS G12V)

Row | IC50 [nM] | SMILES
9 | 50 to 500 | [2H]C([2H])(Oc1nc(N2CCCO[C@@H]3C[C@@H]32)c2c(OC)nc(-c3cc(O)cc4ccc(F)c(C#C)c34)c(F)c2n1)[C@@]12CCCN1C[C@H](F)C2 [Example 35, 4-(4-((1R,7S)-2-Oxa-6-azabicyclo[5.1.0]octan-6-yl)-8-fluoro-2-(((2R,7aS)-2-fluorotetrahydro-1H-pyrrolizin-7a(5H)-yl)methoxy-d2)-5-methoxypyrido[4,3-d]pyrimidin-7-yl)-5-ethynyl-6-fluoronaphthalen-2-ol]
10 | 500 to 10000 | [2H]C([2H])(Oc1nc(N2CCCO[C@@H]3C[C@@H]32)c2cnc(-c3cc(N)cc4cc(F)c(F)c(C#C)c34)c(F)c2n1)[C@@]12CCCN1C[C@H](F)C2 [Example 18, 4-(4-((1R,7S)-2-Oxa-6-azabicyclo[5.1.0]octan-6-yl)-8-fluoro-2-(((2R,7aS)-2-fluorotetrahydro-1H-pyrrolizin-7a(5H)-yl)methoxy-d2)pyrido[4,3-d]pyrimidin-7-yl)-5-ethynyl-6,7-difluoronaphthalen-2-amine]
11 | 50 to 500 | [2H]C1([2H])CCO[C@@H]2C[C@@H]2N1c1nc(OC([2H])([2H])[C@@]23CCCN2C[C@H](F)C3)nc2c(F)c(-c3cc(N)cc4cc(F)c(F)c(C#C)c34)ncc12 [Example 26, 4-(4-((1R,7S)-2-Oxa-6-azabicyclo[5.1.0]octan-6-yl-5,5-d2)-8-fluoro-2-(((2R,7aS)-2-fluorotetrahydro-1H-pyrrolizin-7a(5H)-yl)methoxy-d2)pyrido[4,3-d]pyrimidin-7-yl)-5-ethynyl-6,7-difluoronaphthalen-2-amine]
12 | < 50 | [2H]C([2H])(Oc1nc(N2CCCO[C@H]3C[C@H]32)c2c(OC)nc(-c3cc(O)cc4ccc(F)c(C#C)c34)c(F)c2n1)[C@@]12CCCN1C[C@H](F)C2 [Example 36, 4-(4-((1S,7R)-2-Oxa-6-azabicyclo[5.1.0]octan-6-yl)-8-fluoro-2-(((2R,7aS)-2-fluorotetrahydro-1H-pyrrolizin-7a(5H)-yl)methoxy-d2)-5-methoxypyrido[4,3-d]pyrimidin-7-yl)-5-ethynyl-6-fluoronaphthalen-2-ol]
13 | 500 to 10000 | [2H]C([2H])(Oc1nc(N2CCOC[C@@H]3C[C@@H]32)c2cnc(-c3cc(N)cc4cc(F)c(F)c(C#C)c34)c(F)c2n1)[C@@]12CCCN1C[C@H](F)C2 [Example 61, 4-(4-((1S,7R)-5-Oxa-2-azabicyclo[5.1.0]octan-2-yl)-8-fluoro-2-(((2R,7aS)-2-fluorotetrahydro-1H-pyrrolizin-7a(5H)-yl)methoxy-d2)pyrido[4,3-d]pyrimidin-7-yl)-5-ethynyl-6,7-difluoronaphthalen-2-amine]
14 | < 50 | [2H]C([2H])(F)Oc1c(F)c(F)cc2cc(N)cc(-c3ncc4c(N5CCOC[C@H]6[C@H](F)[C@H]65)nc(OC([2H])([2H])[C@@]56CCCN5C[C@H](F)C6)nc4c3F)c12 [Example 88, 6,7-Difluoro-4-(8-fluoro-4-((1S,7S,8S)-8-fluoro-5-oxa-2-azabicyclo[5.1.0]octan-2-yl)-2-(((2R,7aS)-2-fluorotetrahydro-1H-pyrrolizin-7a(5H)-yl)methoxy-d2)pyrido[4,3-d]pyrimidin-7-yl)-5-(fluoromethoxy-d2)naphthalen-2-amine]
15 | < 50 | [2H]C([2H])([2H])Oc1c(C#N)ccc2cc(N)cc(-c3ncc4c(N5CCCC[C@H]6[C@H](F)[C@H]65)nc(OC([2H])([2H])[C@@]56CCCN5C[C@H](F)C6)nc4c3F)c12 [Example 49, 6-Amino-8-(8-fluoro-4-((1S,7R,8S)-8-fluoro-2-azabicyclo[5.1.0]octan-2-yl)-2-(((2R,7aS)-2-fluorotetrahydro-1H-pyrrolizin-7a(5H)-yl)methoxy-d2)pyrido[4,3-d]pyrimidin-7-yl)-1-(methoxy-d3)-2-naphthonitrile]

same assay, conditions: cellular pERK (Thr202/Tyr204) HTRF, NCI-H441 cells

Row | IC50 [nM] | SMILES
16 | < 50 | [2H]C([2H])(Oc1nc(N2CCOC[C@H]3[C@H](F)[C@H]32)c2cc(C#N)c(-c3cc(N)cc4ccc(F)c(C#C)c34)c(F)c2n1)[C@@]12CCCN1C[C@H](F)C2 (atropisomer, axis not shown; (aS)) [Example 358, (S)-7-(3-amino-8-ethynyl-7-fluoronaphthalen-1-yl)-8-fluoro-4-((1S,7S,8S)-8-fluoro-5-oxa-2-azabicyclo[5.1.0]octan-2-yl)-2-(((2R,7aS)-2-fluorotetrahydro-1H-pyrrolizin-7a(5H)-yl)methoxy-d2)quinazoline-6-carbonitrile]

same assay, conditions: cellular pERK HTRF, NCI-H441 (KRAS G12V) cells

Row | IC50 [nM] | SMILES
17 | < 50 | [2H]C([2H])(Oc1nc(N2CCOC[C@H]3[C@H](F)[C@H]32)c2cc(F)c(-c3cc(O)cc4ccc(F)c(C#C)c34)c(C)c2n1)[C@@]12CCCN1C[C@H](F)C2 [Example 469, 5-ethynyl-6-fluoro-4-((S)-6-fluoro-4-((1S,7S,8S)-8-fluoro-5-oxa-2-azabicyclo[5.1.0]octan-2-yl)-2-(((2R,7aS)-2-fluorotetrahydro-1H-pyrrolizin-7a(5H)-yl)methoxy-d2)-8-methylquinazolin-7-yl)naphthalen-2-ol]
18 | < 50 | [2H]C([2H])(Oc1nc(N2CCOC[C@H]3[C@H](F)[C@H]32)c2cc(C#N)c(-c3ccc(F)c4sc(N)c(C#N)c34)c(C)c2n1)[C@@]12CCCN1C[C@H](F)C2 (atropisomer, axis not shown; (aS)) [Example 440, (R)-7-(2-amino-3-cyano-7-fluorobenzo[b]thiophen-4-yl)-4-((1S,7S,8S)-8-fluoro-5-oxa-2-azabicyclo[5.1.0]octan-2-yl)-2-(((2R,7aS)-2-fluorotetrahydro-1H-pyrrolizin-7a(5H)-yl)methoxy-d2)-8-methylquinazoline-6-carbonitrile]
